Tests used:
Assay type in all cases: in vivo
[1] = tested on: deutonymph of spider mite (Tetranychuscinnabarinus); test: Greenhouse test against deutonymph of spider mite, spray on bean leaves; conditions: after 72 h
Method: Ten healthy female adult spider mites (Tetranychuscinnabarinus) were put into two true leaves of bean plants. The adult spider mites were removed after 24 h and the eggs were to be continued incubating. After ten days, the number of deutonymph were investigated and recorded. The solution of certain concentrations of test compounds was sprayed by using a sprinkler. Three replicates were set for each treatment. Then the deutonymph of spider mites were maintained in standard observation room. After 72 h, the survival mites in each leaf were observed, and mortality of the mites was determined.

[2] = tested on: citrus red mite (Panonychuscitri); test: Field trial against citrus red mite (Jiangxi, China)
Method: The trial was carried out in a 2-year-old Shatang orange orchard in Ganzhou city Jiangxi province, trifoliate orange trees were selected as stocks, the intervals between two plants was 1.50 × 2.50 m, the average height was 1.45 m and the crown width was 1.30 m. Two trees were selected in each plot, with random arrangement and 4 replications. Compound 1 (10% SC) was set at three different doses (100 mg/L, 50 mg/L and 25 mg/L), spirodiclofen (29% SC) was set at one dose (50 mg/L), and pyridaben (20% EC) was set at one dose (100 mg/L). MatabiSupergreen 16 Knapsack Sprayer 16 Liter was used to spray evenly with 2L of spraying volume for each plant. The plants were treated once in May at that time, adults, nymphs, eggs of citrus red mite all existed, with adults/eggs = 1/1.2. During the day the plants were treated, and the weather was good with the average temperature at 24°C. The first three days after treatment were all clear days. The number of mites was investigated before treatment and on the 1st, 3rd, 7th, 14th, 22nd and 28th day after treatment respectively. Two trees of each plot were investigated according to the five directions of the tree crown (east, south, west, north and central), 5 leaves in each direction were investigated to calculate the number of living mites, with 50 leaves each plot. The decline rate of mite population and corrected efficacy were calculated according to formulas below: The decline rate of mite population(%) = [(the average number of mite on each leaf; before treatment−the average number of mite on each leaf after treatment)/the; average number of mite on each leaf before treatment] × 100. [formula] Corrected efficacy(%) = [(the decline rate of mite population in treated area−the; decline rate of mite population in untreated area)/(100−the decline rate of mite; population in untreated area)] × 100. [formula]

[3] = tested on: egg of spider mite (Tetranychuscinnabarinus); test: Greenhouse test against egg of spider mite, spray on bean leaf; conditions: eggs, after 5 days
Method: Two true leaves of bean plants were taken and one true leaf was removed. Then ten healthy female adult spider mites were put into the true leaf. The adult spider mites were removed after 24 h and the eggs were investigated. The solution of certain concentrations of test compounds was sprayed by using a sprinkler. Three replicates were set for each treatment. The untreated eggs were all incubated after 5 days. The unincubation of treated eggs in leaf was observed, and incubation inhibition rate of the eggs was determined.

| SMILES | Mortality (%) ([1]; 0.25mg/L) | Mortality (%) ([1]; 0.5mg/L) | Mortality (%) ([1]; 1mg/L) | Corrected efficacy (%) ([2]; 100 mg/L, The 1st day after treatment) | Corrected efficacy (%) ([2]; 100 mg/L, The 3rd day after treatment) | Corrected efficacy (%) ([2]; 100 mg/L, The 7th day after treatment) | Corrected efficacy (%) ([2]; 100 mg/L, The 14th day after treatment) | Corrected efficacy (%) ([2]; 100 mg/L, The 22nd day after treatment) | Corrected efficacy (%) ([2]; 100 mg/L, The 28th day after treatment) | Incubation inhibition rate (%) ([3]; 1mg/L) | Incubation inhibition rate (%) ([3]; 5mg/L) | Incubation inhibition rate (%) [3] [%] | Corrected efficacy (%) ([2]; 50 mg/L, The 1st day after treatment) | Corrected efficacy (%) ([2]; 50 mg/L, The 3rd day after treatment) | Corrected efficacy (%) ([2]; 50 mg/L, The 7th day after treatment) | Corrected efficacy (%) ([2]; 50 mg/L, The 14th day after treatment) | Corrected efficacy (%) ([2]; 50 mg/L, The 22nd day after treatment) | Corrected efficacy (%) ([2]; 50 mg/L, The 28th day after treatment) |
| --- | --- | --- | --- | --- | --- | --- | --- | --- | --- | --- | --- | --- | --- | --- | --- | --- | --- | --- |
| CC(C)(C)c1ccc(CSc2cnn(C(C)(C)C)c(=O)c2Cl)cc1 [pyridaben] | 25 | 60 | 84 | 0 | 65 | 90 | 93 | 92 | 95 |  |  |  |  |  |  |  |  |  |
| CCC(C)(C)C(=O)OC1=C(c2ccc(Cl)cc2Cl)C(=O)OC12CCCCC2 [spirodiclofen] |  |  |  |  |  |  |  |  |  | 37 | 100 | 13 | 20 | 48 | 63 | 80 | 71 | 70 |

Source: patent EP3366672B9, “BIPHENYL COMPOUND AND APPLICATION THEREOF” (Shenyang Sinochem Agrochemicals R & D Co., Ltd., priority 2015, dated 2017)
